Entries after “also recorded” stand apart in the source; their conditions may differ. Structures can show the parent of a compound that is named as a salt. Where two headings read alike, the source gives them in different places.

Data set [1] relates to alcoholic or heroin addicts. The format is in vivo. The following applies: 200 mg per day oral or intramuscular, of 30 patients. As for the experimental part: Thus for example, 200 mg per day of compound (1) was administered orally or by intramuscular injection to 30 patients who were alcoholic or heroin addicts. In 28 cases the product acted rapidly and the drug addicts asked for more. Its effect is different from that of opiates and the main antalgics.

In data set [2] the test system is patients suffering from migraine. The data set can be described thus: clinical treatment of migraine. The format is in vivo. The following applies: single patients, 100-300 mg per day. Here is the method:
Compound (1) was administered in a dose of three tablets per day (300 mg) to a patient suffering from frequent migraines; these obliged hereto interrupt any professional activity for three or four days per month.
Compound (1) was administered in a daily dose of 300 mg taken in three portions, to two twin brothers who suffered each month from attacks of migraine accompanied by vomiting.
Compound (2) was administered continuously, in doses of two tablets per day (200 mg), to a person who had suffered from attacks of migraine for four years. The attacks had not responded to curative treatment (ergotamine and caffeine) or preventive treatment.
Compound (2) was administered in doses of three tablets per day (300 mg) to a person suffering from quasi permanent occipital cephalalgia and several times a week from attacks of migraine with right hemicrania, photophobia and nausea.

For data set [3], the system named is patients suffering from catatonic hebephrenia. As to the kind of experiment: clinical treatment of catatonic hebephrenia. The format is in vivo. Particulars: 100-300 mg daily oral or intramuscular, of 21 patients. As for the experimental part:
21 patients suffering from catatonic hebephrenia were treated with compound (1), a daily dose of 100-300 mg being given orally or by intramuscular injection. In 13 cases removal of inhibitions was observed, sometimes with a reversal of mood, which made it possible to make contact with the patient.

Data set [4] concerns serotonin. As to the kind of experiment: antiserotonin action in connection with stomach ulceration in the rat. The following applies: sc. The format is in vivo. As for the experimental part: The antiserotonin action in connection with stomach ulceration has been studied in the rat under the following conditions:
30 mg/kg of serotonin is administered subcutaneously to female rats in two stages, with an interval of 16 hours. The product being studied is administered subcutaneously at the same time as the serotonin, in two stages with increasing doses. A group of 30 animals is used for each dose and a group of 60 animals is used as the control. The animals are sacrificed 22 hours after the first injection of serotonin, and their stomachs are taken out and examined. The percentage protection for each dose studied is determined, then the DE50, the dose protecting 50% of the animals, from gastric ulceration, is measured graphically.

Data set [5] can be described thus: acute toxicity in mice (LD50). The class given is in vivo. Particulars: mouse, in vivo, male mouse. From the text: (§1) The acute toxicity of the compounds according to the invention has been studied in mice. The lethal doses 50 are set out in the table which follows:
(§2) LD50 DETERMINED IN THE MALE MOUSE -

In data set [6] the test system is apomorphine. As to the kind of experiment: antiemetic power relative to apomorphine, dogs, method of Chen and Ensor. The following applies: s.c. 30 minutes before apomorphine 100 μg/kg s.c.; for ED50: Canis lupus familiaris, sc, read-out: Antiapomorphine ED50 in the dog. The class given is in vivo, dog. Here is the method:
The compounds of the invention have undergone other pharmacodynamic tests, and in particular their antiemetic power relative to apomorphine has been measured.
The test has been carried out on dogs by the method of Chen and Ensor.
The compounds of the invention are administered subcutaneously, 30 minutes before the apomorphine, which is administered subcutaneously in a dose of 100 μg/kg.

The subject of data set [7] is serotonin. As to the kind of experiment: antiserotonin action in respect of bronchospasm in the guinea-pig, method of Konzett and Rossler. The following applies: serotonin 20 μg/kg intravenously, anaesthetised guinea-pigs. The format is in vivo. As for the experimental part:
The antiserotonin action in respect of bronchospasm has been studied in the guinea-pig under the following conditions:
The bronchospasm is recorded by the method of Konzett and Rossler, which comprises connecting the trachea of the guinea-pig to an artificial respiration pump, which passes a constant volume of air, slightly greater than the respiratory capacity of the animal, into the bronchi at a physiological rhythm. The excess quantity of air, which varies according to the diameter of the bronchi, is discharged to a special manometric device which measures the volume of air at each inhalation.
The serotonin is administered intravenously to the guinea-pigs in a dose of 20 μg/kg. The guinea-pigs have previously been anaesthetised with ethyl carbamate, thus producing a bronchial spasm.
The product to be studied is then administered intravenously, after which the administration of serotonin is repeated one minute later. The percentage inhibition of bronchospasm is measured for each dose of the product to be studied, then the antiserotonin DE50 relative to bronchospasm in the guinea-pig is determined.

Data set [8] relates to patients suffering from sudden attacks of delirium. As to the kind of experiment: clinical treatment of sudden attacks of delirium. The format is in vivo. The following applies: 350 mg per day oral or intramuscular. Here is the method:
41 patients suffering from sudden attacks of delirium were treated with 350 mg per day of compound (2), administered orally or by intramuscular injection.

The subject of data set [9] is male mouse. As to the kind of experiment: acute toxicity in mice (LD50). The format is in vivo.
Text: as §1, §2

The test system of data set [10] is male rats. The data set can be described thus: cataleptic action in male rats, subcutaneous. The class given is in vivo, rat. Particulars: 200 mg/kg subcutaneously, after 7 hours. As for the experimental part: The cataleptic action has been studied as follows.
Benzamides are administered subcutaneously to male rats. The criterion taken for the cataleptic state is that the animal should be immobile for 30 seconds with its rear limbs apart, arranged carefully on wooden cubes 4 cm high, which thus puts the animal in an unaccustomed and uncomfortable position.
The cataleptic action is measured when the effect is at its maximum, i.e. 5 to 7 hours after the substance has been administered.

[11] abbreviates: Rattus norvegicus, 22 h, female rats, serotonin 30 mg/kg s.c. in two stages, dose protecting 50% of the animals, read-out: Antiserotonin ED50 in respect of stomach ulceration, in the rat.

The term LD50 denotes the dose expected to kill half of the subjects tested. Lower therefore signals a more toxic substance. Consider `CCN1CCCC1CNC(=O)c1cc(S(=O)(=O)CC)c(N)cc1OC` (stereo not drawn) [Compound 1, N-(1-ethyl 2-pyrrolidylmethyl) 2-methoxy 4-amino 5-ethylsulphonyl benzamide], for which the “cases in which the product acted rapidly” value in [1] was found to be 28 cases. Besides, the “effect on migraine (in words)” value in [2] is “The migraines decreased from the first month and disappeared altogether from the second month; also recorded: For one of the twins the migraine disappeared immediately; also recorded: For the other the pain disappeared from the second method and only a few attacks of nausea persisted”. Moreover, the “cases with removal of inhibitions” value in data set [3] is recorded as 13 cases. Moreover, the ED50 is 1 mg/kg in [4] (setting [11]) and 0.00029 mg/kg in data set [6]. Moreover, the 50% lethal dose (LD50) in [5] (ip, I.P.) lay within 175 to 180 mg/kg; in data set [5] (iv) it was 56 to 60 mg/kg; in data set [5] (po), 1020 to 1050 mg/kg; in [5] (sc, subcutaneous), 224 to 250 mg/kg. Also, the “Antiserotonin ED50 relative to bronchospasm in the guinea-pig” value in data set [7] is 74 μg/kg/IV.

On to `CCN1CCCC1CNC(=O)c1cc(S(C)(=O)=O)c(N)cc1OC` (stereo not drawn) [Compound 8, N-[1-ethyl 2-pyrrolidylmethyl]2-methoxy 4-amino 5-methylsulphonyl benzamide], for which the ED50 in data set [4] (setting [11]) is 3 mg/kg; in data set [6] it was 0.0027 mg/kg. Also, the LD50 in data set [5] (ip, I.P.) lay in the range of 234 to 238 mg/kg; in data set [5] (iv), 46.5 to 50 mg/kg; in data set [5] (po) it was 625 to 660 mg/kg; in data set [5] (sc, subcutaneous), 208 to 225 mg/kg.

As for `C=CCN1CCCC1CNC(=O)c1cc(S(=O)(=O)CC)c(N)cc1OC` (stereo not drawn) [Compound 3, N-[1-allyl 2-pyrrolidylmethyl]2-methoxy 4-amino 5-ethylsulphonyl benzamide], the ED50 turned out to be 0.65 mg/kg in data set [4] (setting [11]) and 0.00065 mg/kg in data set [6]. Also, the LD50 in data set [5] (ip, I.P.) is 216 to 217 mg/kg; in data set [5] (iv) it was 106 to 107 mg/kg; in [5] (po) it was 2230 to 2380 mg/kg; in data set [5] (sc, subcutaneous), 312 to 330 mg/kg.

Consider `CCCS(=O)(=O)c1cc(C(=O)NCC2CCCN2CC)c(OC)cc1N` (stereo not drawn) [Compound 7, N(1ethyl 2pyrrolidylmethyl) 2methoxy 4amino 5propylsulphonyl benzamide], for which the ED50 in data set [4] (setting [11]) was found to be 3.2 mg/kg; in data set [6] it was 0.0016 mg/kg. For the same compound, the 50% lethal dose (LD50) was in the range of 160 to 165 mg/kg in data set [5] (ip, I.P.); 43 to 46.8 mg/kg in [5] (iv); 570 to 629 mg/kg in [5] (po); 140 to 144 mg/kg in data set [5] (sc, subcutaneous).

For `CCS(=O)(=O)c1cc(C(=O)NCC2CCCN2C)c(OC)cc1N` (stereo not drawn) [Compound 2, N-[1-methyl 2-pyrrolidylmethyl]2-methoxy 4-amino 5-ethylsulphonyl benzamide], the “effect on migraine (in words)” value in data set [2] was “their intensity is decreasing; also recorded: From the third week the migraine attacks disappeared completely”. Moreover, the ED50 in [4] (setting [11]) came out at 0.4 mg/kg; in [6] it was 0.0008 mg/kg. For the same compound, the LD50 was 210 to 217 mg/kg in data set [5] (ip, I.P.); 56 to 57 mg/kg in data set [5] (iv); 1330 mg/kg in data set [5] (po); 280 mg/kg in [5] (sc, subcutaneous). Further, the antidepressive action result in data set [8] (41 patients) is “there was an antidepressive action”. In addition, in data set [8] (41 patients, all cases), the tolerance entry is on record as “excellent tolerance in all cases”. For the same compound, the “cases with a very good antipsychotic action in sudden attacks of delirium” value in data set [8] (of 41 patients) is 38 cases.

For `COc1cc(N)c(S(C)(=O)=O)cc1C(=O)NCC1CCCN1C` (stereo not drawn) [Compound 9, N-[1-methyl 2-pyrrolidylmethyl]2-methoxy 4-amino 5-methylsulphonyl benzamide], the ED50 came out at 1.14 mg/kg in data set [4] (setting [11]) and 0.007 mg/kg in data set [6]. The LD50 in data set [5] (ip, I.P.) is 200 to 216 mg/kg; in [5] (iv) it was 54 mg/kg; in [5] (sc, subcutaneous), 202 mg/kg.

Take `CCS(=O)(=O)c1cc(C(=O)NCC2CCCN2C)c(OC)cc1N` (single isomer, unassigned) [Compound 6, Dextrorotatory N-1-methyl 2-pyrrolidylmethyl 2-methoxy 4-amino 5-ethylsulphonyl benzamide]: the ED50 was 0.34 to 0.44 mg/kg in data set [4] (setting [11]) and 0.008 mg/kg in data set [6]. For the same compound, the LD50 in [5] (ip, I.P.) was in the range of 304 to 322 mg/kg; in data set [5] (iv), 62 to 64 mg/kg; in data set [5] (po) it was 1190 to 1260 mg/kg; in data set [5] (sc, subcutaneous) it was 380 to 396 mg/kg.

With `CCN1CCCC1CNC(=O)c1cc(S(=O)(=O)CC)c(N)cc1OC` (single isomer, unassigned) [Compound 5, Levorotatory tartrate of N-[1-ethyl 2-pyrrolidylmethyl]2-methoxy 4-amino 5-ethylsulphonyl benzamide], the LD50 in data set [9] (I.P.) is 122 to 128 mg/kg; in [9] (intravenous) it was 44.8 mg/kg; in data set [9] (oral), 1109 to 1160 mg/kg; in [9] (subcutaneous), 137 to 149 mg/kg. Also, the “Antiapomorphine ED50 in the dog” value in data set [6] is 0.28 μg/kg/s.c. In data set [10], the “cataleptic state, % of the animals” value was 30%.

Regarding `CCN1CCCC1CNC(=O)c1cc(S(=O)(=O)CC)c(N)cc1OC` (single isomer, unassigned) [Compound 4, Dextrorotatory tartrate of N-[1-ethyl 2-pyrrolidylmethyl]2-methoxy 4-amino 5-ethylsulphonyl benzamide], the ED50 in data set [4] (setting [11]) worked out at 0.46 mg/kg. Moreover, the median lethal dose (LD50) in data set [5] (ip, I.P.) was 188 mg/kg; in [5] (iv), 39.8 mg/kg; in data set [5] (po), 1560 to 1620 mg/kg; in data set [5] (sc, subcutaneous) it was 254 to 263 mg/kg. Further, the “Antiapomorphine ED50 in the dog” value in [6] was found to be 12 μg/kg/s.c. For the same compound, the “Antiserotonin ED50 relative to bronchospasm in the guinea-pig” value in data set [7] is listed as 106 μg/kg/IV.

With `CCN1CCCC1CNC(=O)c1cc(S(N)(=O)=O)ccc1OC` (stereo not drawn) [sulpiride, reference compound], in [4] (rat, comparator value in text, read-out: antiserotonin ED50 relative to stomach ulceration in the rat (comparator, text)), the ED50 was determined as 110 mg/kg.

The values above are taken from patent US4401822A, “Derivatives of 4-amino-5-alkyl sulphonyl orthoanisamides” (Societe de'Etudes Scientifiques et Industrielles de …, priority 1978, dated 1983).
